According to patent US11925634B2, “Use of koumine in preparation of medicament for treatment of inflammatory bowel disease” (Fujian Medical University, priority 2019, dated 2024):

Columns and labels:
[1] = system: mice with DSS-induced bowel inflammation; assay: DSS-induced bowel inflammation in C57BL/6 mice (body weight, defecation, colon length, histopathology); type: in vivo; conditions: for histopathological scoring: p<0.01 vs model, FIG. 4
Experimental: Dextran sulfate sodium (DSS) has an anticoagulant effect and, when orally administered to experimental animals, can cause hyperemia, ulcers, submucosal edema in bowel tissue and other pathological manifestations closely similar to those of clinical IBD patients. Models of DSS-induced bowel inflammation can be taken as basic models for studying the pathogenesis of UC and even IBD and evaluating the efficacy of therapeutic medicaments. In this example, therapeutic effects of koumine were evaluated in a C57BL/6 mouse model of DSS-induced bowel inflammation with the animals' body weight, defecation, pathological manifestations of colonic tissue, expression of MPO in colonic tissue and the like as indicators.
1.1. Experimental Animals Six to eight week old healthy male SPF C57BL/6 mice (weighing 18-22 g) were purchased from Shanghai SLAC Laboratory Animal Co., Ltd. (License No. SOCK (Shanghai) 2017-0005). Prior to study start, the mice were acclimated for 7 days until their body weights reached 20±2 g. They were bred under conditions of a 12/12-h light-dark cycle (light on 8:00-20:00), constant temperature (20-26° C.) and constant humidity (40-70%), with food and water provided ad libitum. Experimental operations were conducted in accordance with regulations of international and local committees on care and use of laboratory animals (the same applies below).
(§1) 1.2. Medicaments and Reagents Koumine hydrochloride (C20H22N2O·HCl) (in the form of a powder) was prepared in the School of Pharmacy, Fujian Medical University (Batch No. KM201610, with a purity of 99.99% as determined by high performance liquid chromatography), stored at 4° C. in the dark, and dissolved in normal saline to a desired concentration before use. DSS was purchased from MP Biomedicals, USA and fully dissolved in distilled water to a desired concentration before use. Mesalazine enteric coated tablets were purchased from Heilongjiang Tianhong Pharmaceutical Co., Ltd. A citrate (pH=6.0) antigen retrieval solution, BSA, an anti-myeloperoxidase primary antibody, an HRP-conjugated goat anti-rabbit secondary antibody and a histochemistry kit for DAB staining were purchased from Wuhan Servicebio Technology Co., Ltd. (the same applies below).
(§2) Fifty-one healthy SPF C57BL/6 mice were randomly assigned into a blank control group (n=6), a model group (n=9) and 4 treatment groups (n=9 for each) respectively administered with low (0.67 mg/kg), medium (2 mg/kg) and high (6 mg/kg) doses of koumine, as well as mesalazine (100 mg/kg) as a positive control. A mouse model of DSS-induced bowel inflammation was established by allowing the mice in the model group and the individual treatment groups to have free access to a 2.5% DSS solution in water for 8 days and providing ad libitum access to normal water to the mice in the blank control group. From the day of induction (D0), the mice in the treatment groups received intragastric administration (0.1 mL/10 g) once a day for 9 consecutive days (D0-D8), while those in the control and model groups were given the same volumes of normal saline also by intragastric administration throughout the same period. Body weight measurements were taken and fecal occult blood tests were performed daily. One hour after the last administration (D8), the mice were sacrificed by cervical dislocation under anesthesia. Immediately after that, a bowel segment from the terminal ileum to the anus was removed from each mouse, and a length from the ileocolonic junction to the anus was measured and recorded. Colonic tissue was taken 1 cm away from the anus for histopathological examination, as well as for immunohistochemical detection for the expression of MPO. Additionally, colonic tissue was taken 1-2 cm away from the anus for MPO activity determination.

myeloperoxidase (MPO) [2] = assay: Immunohistochemical detection of MPO expression in colonic tissue, DSS model; type: in vivo, C57BL/6 mice
Experimental: as §1, §2

[3] = system: mice with OXA-induced colitis; assay: OXA-induced colitis in BALB/c mice (body weight, colon length, histomorphology); type: in vivo
From the text: OXA-induced colitis causes lesions primarily in the distal colon and resembles human IBD in terms of histological characteristics and distribution of inflammation, which can be manifested as a decrease in goblet cells.
Six to eight week old healthy male SPF BALB/c mice were purchased from Shanghai SLAC Laboratory Animal Co., Ltd. (License No. SOCK (Shanghai) 2017-0005).
The same koumine hydrochloride and mesalazine as in Example 1 were used. OXA was purchased from Sigma, USA and prepared in the form of a solution before use by fully dissolving it in absolute ethanol preheated to 35° C. When used for an enema, the solution was diluted 1-fold with normal saline to a desired concentration. Absolute ethanol was purchased from Merck, Germany. All the other reagents were the same as in Example 1.
Seventy-four BALB/c mice were randomly assigned into a blank control group (n=6), a vehicle control group (n=10), a model group (n=19) and low-dose (n=10), medium-dose (n=9) and high-dose (n=12) koumine treatment groups and another treatment group (n=8) administered with mesalazine as a positive control. A mouse model of OXA-induced UC was established by sensitizing and then giving enemas to the mice in the model group and the individual treatment groups. Specifically, each of the mice was anesthetized and sensitized by drop-wise applying a 3% solution (150 μL) of OXA in absolute ethanol to a shaved abdominal area (about 1.5 cm×1.5 cm), and received an enema using a 1% solution of OXA in 50% ethanol (100 μL) five days following the sensitization (D0). The mice in the vehicle and blank control groups were treated similarly, except for drop-wise application of 150 μL absolute ethanol and normal saline in the sensitization phase, respectively, and use of 100 μL of 50% ethanol and the same volume of normal saline in the enema phase, respectively. From the day of enema administration (D0), the mice in the treatment groups received intragastric administration (0.1 mL/10 g) once a day for 4 consecutive days (D0-D3). The daily dosage of koumine and the positive control mesalazine to the treatment groups was the same as in Example 1, and the vehicle control group was given the same volumes of 50% ethanol. Bowel inflammation evaluation of the animals was conducted in the same manner using the same indicators as in Example 1.

myeloperoxidase (MPO) [4] = assay: Immunohistochemical detection of MPO expression in colonic tissue, OXA model; type: in vivo, BALB/c mice
Experimental: […]

myeloperoxidase (MPO) [5] = assay: MPO activity assay in colonic tissue homogenates, OXA model; type: in vivo, BALB/c mice; conditions: p<0.01, p<0.001 vs model, FIG. 10
Experimental: […]

[6] = mesalazine 100 mg/kg intragastric

## C=CC12CN(C)C3CC14C(=Nc1ccccc14)C1CC2C3CO1 (centres unmarked) [koumine]
[1]; high dose 6 mg/kg intragastric once a day
  defecation and hematochezia: fewer times of defecation and mitigated hematochezia
[1]; koumine 0.67, 2, 6 mg/kg intragastric once a day
  gross damage and hyperemia of bowel mucosa: ameliorate damage, hyperemia and the like
[1]; koumine 0.67, 2, 6 mg/kg intragastric once a day D0-D8, FIG. 1
  symptom of weight loss: alleviate the symptom of weight loss
[1]; koumine 0.67, 2, 6 mg/kg intragastric once a day, FIG. 2
  colon shortening: dose-dependently reduce colon shortening
[1]; koumine 0.67, 2, 6 mg/kg intragastric, FIG. 3 C-E
  microscopic manifestations of HE-stained colonic tissue: reduced inflammatory cell infiltration
[1]; koumine high dose 6 mg/kg intragastric
  histopathological scoring: significantly inhibit increases in the sore of the model group
[1]; low dose 0.67 mg/kg intragastric once a day, as early as D6 (seventh day of administration), p<0.05, FIG. 1
  average body weight vs model group: significantly higher than that of those in the model group
[1]; low dose 0.67 mg/kg intragastric, eighth day of administration, p<0.05, FIG. 2
  colon length vs model group: significantly greater than that of the model group
[1]; medium dose 2 mg/kg intragastric once a day
  defecation and hematochezia: fewer times of defecation and mitigated hematochezia
[1]; medium dose 2 mg/kg intragastric once a day, from D5 (sixth day of administration), p<0.05 and p<0.01, FIG. 1
  average body weight vs model group: significantly higher than that of those in the model group
Myeloperoxidase (MPO) [2]; high dose 6 mg/kg intragastric, FIG. 5 E
  expression of MPO in colonic tissue: lowered the expression of MPO to different extents
Myeloperoxidase (MPO) [2]; low dose 0.67 mg/kg intragastric, FIG. 5 C
  expression of MPO in colonic tissue: did not lead to any noticeable decrease in the expression of MPO
Myeloperoxidase (MPO) [2]; medium dose 2 mg/kg intragastric, FIG. 5 D
  expression of MPO in colonic tissue: lowered the expression of MPO to different extents
[3]; high dose 6 mg/kg intragastric
  gross manifestations of colonic tissue (hyperemia, redness and swelling): remarkable relief of most manifestations of colonic tissue
[3]; high dose 6 mg/kg intragastric, FIG. 8 E
  microscopic manifestations of HE-stained colonic tissue: infiltration of only a small number of inflammatory cells
[3]; koumine 0.67, 2, 6 mg/kg intragastric once a day D0-D3, FIG. 6
  body weight loss: alleviate body weight loss of mice with colitis in a dose-dependent manner
[3]; koumine 0.67, 2, 6 mg/kg intragastric, FIG. 7
  positive effect on colon length: dose-dependent
[3]; low dose 0.67 mg/kg intragastric
  gross manifestations of colonic tissue (hyperemia, redness and swelling): appeared to not mitigate the manifestations
[3]; low dose 0.67 mg/kg intragastric, FIG. 8 C
  microscopic manifestations of HE-stained colonic tissue: slightly milder symptoms than the symptoms of the model group
[3]; low dose 0.67 mg/kg intragastric, p<0.01 vs model, FIG. 7
  colon shortening: significantly reduce their colon shortening
[3]; medium dose 2 mg/kg intragastric
  gross manifestations of colonic tissue (hyperemia, redness and swelling): not seen with severe redness and swelling, hyperemia or other inflammatory manifestations
[3]; medium dose 2 mg/kg intragastric, FIG. 8 D
  microscopic manifestations of HE-stained colonic tissue: infiltration of only a small number of inflammatory cells
Myeloperoxidase (MPO) [4]; koumine at the different doses (0.67, 2, 6 mg/kg) intragastric, FIG. 9 C-E
  expression of MPO in colonic tissue: suppressed expression of MPO to varying extents
Myeloperoxidase (MPO) [5]; koumine at the different doses (0.67, 2, 6 mg/kg) intragastric
  enzymatic activity of MPO in colonic tissue: significantly reduced enzymatic activity per unit weight

## Nc1ccc(O)c(C(=O)O)c1 [mesalazine, reference compound]
[1]; mesalazine 100 mg/kg intragastric, FIG. 3 F
  microscopic manifestations of HE-stained colonic tissue: obvious improvements over the model group mice
[1]; [6]
  histopathological scoring: significantly inhibit increases in the sore of the model group
Myeloperoxidase (MPO) [2]; mesalazine 100 mg/kg intragastric, FIG. 5 F
  expression of MPO in colonic tissue: lowered the expression of MPO to different extents
[3]; mesalazine 100 mg/kg intragastric once a day D0-D3, FIG. 6
  effect of alleviating body weight loss: comparable to that of the medium dose of koumine
[3]; mesalazine 100 mg/kg intragastric, FIG. 7
  positive effect on colon length: comparable to that of koumine at 6 mg/kg
[3]; mesalazine 100 mg/kg intragastric, FIG. 8 F
  microscopic manifestations of HE-stained colonic tissue: infiltration of only a small number of inflammatory cells
Myeloperoxidase (MPO) [4]; mesalazine 100 mg/kg intragastric, FIG. 9 F
  expression of MPO in colonic tissue: suppressed expression of MPO to varying extents
Myeloperoxidase (MPO) [5]; [6]
  enzymatic activity of MPO in colonic tissue: significantly reduced enzymatic activity per unit weight
